Assays:
Format in all cases: cell-based, human
[1] = test system: c-Abl; assay: Nuclear and cytosolic c-Abl in HeLa/vector and HeLa/MUC1 cells after genotoxic agents (subcellular fractionation, immunoblot); conditions: 2 hours
Text: (§1) Cell culture. Human HeLa cervical cancer cells, HCT116/vector (HCT116 colorectal carcinoma cells stably transfected with an empty vector), HCT116/MUC1 (HCT116 colorectal carcinoma cells stably transfected with an expression vector encoding a MUC1 polypeptide), HCT116/MUC1(Y46F) (HCT116 colorectal carcinoma cells stably transfected with an expression vector encoding a mutant MUC1 polypeptide containing an amino acid substitution at position 46 changing a tyrosine (Y) to phenylalanine (F)) colon cancer cells (Ren et al., (2002) J. Biol. Chem. 277: 17616-17622) and 293 cells were cultured in Dulbecco's modified medium with 10% heat-inactivated fetal bovine serum, 100 units/ml penicillin, 100 μg/ml streptomycin and 2 mM L-glutamine. Human ZR-75-1/vector (ZR-75-1 breast cancer cells stably transfected with an empty vector) and ZR-75-1/MUC1siRNA (ZR-75-1 breast cancer cells stably transfected with an expression vector encoding an siRNA specific for MUC1) breast cancer cells (Ren et al., (2004) Cancer Cell 5:163-175) were grown in RPMI1640 medium containing 10% heat-inactivated fetal bovine serum and antibiotics. Cells were treated with 1 μM adriamycin (ADR; Calbiochem), 100 μM cisplatin (CDDP; Sigma) or 10 μM STI571 (Gleevec; Novartis, Basel, Switzerland).
(§2) Subcellular fractionation. Nuclear fractions were prepared as described (Kharbanda et al., (1996) Cancer Res. 56:3617-3621). Cytosolic fractions were prepared as described (Hill et al., (2004) EMBO J. 23:2134-2145). Cell membrane fractions were prepared with the Plasma Membrane Extraction Kit (BioVision Research Products, Mountain View, Calif.). Mitochondria were purified as described (Ren et al., (2004) Cancer Cell 5:163-175; Ren et al., (2006) Oncogene 25:20-31).
(§3) Immunoprecipitations and immunoblot analysis. Cell lysates were prepared as described (Kharbanda et al., (1995) Nature 376:785-788); Yoshida et al., (2005) Nat. Cell Biol. 7:278-285). Soluble proteins were incubated with anti-MUC1-N (Kufe et al., (1984) Hybridoma 3:223-232), anti-MUC1-C (Ab5; Neomarker, Montreal, Quebec), anti-Flag (Sigma, St. Louis, Mo.), anti-c-Abl (Ab3; Oncogene, San Diego, Calif.) or anti-14-3-3 (Abcam Inc., Cambridge, Mass.) antibodies for 2 hours at 4° C., followed by precipitation with protein G-Sepharose beads for 1 hour. […] Intensity of the signals was determined by densitometric scanning. Statistical significance was determined by the Student's t-test.

[2] = test system: c-Abl; assay: Nuclear and cytosolic c-Abl in ZR-75-1/vector and ZR-75-1/MUC1siRNA cells after CDDP (fractionation, immunoblot)
Text: as §1, §2
Immunoprecipitations and immunoblot analysis. Cell lysates were prepared as described (Kharbanda et al., (1995) Nature 376:785-788); Yoshida et al., (2005) Nat. Cell Biol. 7:278-285). […] Intensity of the signals was determined by densitometric scanning. Statistical significance was determined by the Student's t-test.

[3] = test system: c-Abl; assay: Nuclear targeting of c-Abl in HCT116/vector, HCT116/MUC1 and mutant cells after CDDP
Text: as §1, §2, §3

[4] = test system: c-Abl; assay: Analysis of c-Abl kinase activity (anti-c-Abl immunoprecipitates, Crk(120-225), [γ-32P]ATP); conditions: HCT116 cells; CDDP, 1 hour
Protocol: Analysis of c-Abl kinase activity. Nuclear lysates were immunoprecipitated with anti-c-Abl (K-12) antibodies as described (Kharbanda et al., (1997) Nature 386:732-735). The precipitates were resuspended in kinase buffer (20 mM HEPES, pH 7.4, 10 mM MgCl2) containing [γ-^32P]ATP, GST-Crk(120-225) for 20 minutes at 30° C. The reaction products were analyzed by SDS-PAGE and autoradiography.

[NH2][Pt]([NH2])([Cl])[Cl] [CDDP, cisplatin]
cytosolic c-Abl ([1]; HeLa/vector cells, CDDP): decrease in cytosolic c-Abl
nuclear targeting of c-Abl ([1]; HeLa/vector versus HeLa/MUC1 cells, 100 μM CDDP): MUC1 attenuates nuclear targeting of c-Abl
cytosolic c-Abl ([2]; ZR-75-1/MUC1siRNA cells): decreased
increase of nuclear targeting of c-Abl ([2]; ZR-75-1/MUC1siRNA cells silenced for MUC1, 2 and 4 hours): about 6 fold
nuclear targeting of c-Abl ([2]; ZR-75-1/vector cells, 2 and 4 hours): no detectable targeting of c-Abl to the nucleus
CDDP-induced targeting of cytosolic c-Abl to the nucleus ([3]; HCT116/MUC1(Y46F) cells, CDDP, 0, 2 or 4 hours): blocked CDDP-induced targeting of cytosolic c-Abl to the nucleus
effect of MUC1(Y60F) on CDDP-induced targeting of c-Abl to the nucleus ([3]; HCT116/MUC1(Y60F) cells, CDDP, 2 and 4 hours): little if any effect
nuclear targeting of c-Abl ([3]; HCT116/MUC1 cells, CDDP, 2 and 4 hours): blocked nuclear targeting of c-Abl
nuclear targeting of c-Abl ([3]; HCT116/vector cells, CDDP, 2 and 4 hours): c-Abl was targeted to the nucleus
c-Abl kinase activity [4]: induction of c-Abl activity

— patent publication US20080107661A1, “MUC1 and ABL” (Dana-Farber Cancer Institute, Inc., priority 2006, published 2008)
